SMILES strings stand for the structures.

Assay [1] concerns the target T1, RAD52 (Homo sapiens, UniProt P43351).
T1 construct: made in house
T1 sequence (P43351 1-418): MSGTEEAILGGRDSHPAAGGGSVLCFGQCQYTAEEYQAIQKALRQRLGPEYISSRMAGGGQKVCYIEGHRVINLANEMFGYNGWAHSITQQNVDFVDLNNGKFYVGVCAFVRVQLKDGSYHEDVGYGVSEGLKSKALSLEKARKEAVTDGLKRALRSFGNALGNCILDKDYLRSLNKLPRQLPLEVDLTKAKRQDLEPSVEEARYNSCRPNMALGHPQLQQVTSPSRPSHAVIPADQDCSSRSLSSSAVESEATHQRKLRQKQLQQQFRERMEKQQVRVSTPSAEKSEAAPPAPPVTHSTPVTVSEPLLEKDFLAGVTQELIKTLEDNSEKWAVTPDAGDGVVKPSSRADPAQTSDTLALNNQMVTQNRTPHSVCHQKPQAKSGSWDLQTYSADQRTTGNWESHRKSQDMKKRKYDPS
Put plainly: Fluorescence-quenching assay for RAD52 ssDNA annealing (HTS). It counts as biochemical.
Experimental: Tailed dsDNA substrate was prepared by thermal annealing of ssDNA oligonucleotides 337-F and 1337-BHQ1 (SEQ ID NO: 2) containing Fluorescein and Black Hole Quencher 1 residues at the 5′ and 3′ end, respectively. […] The fluorescence intensity was measured in a 3-mm quartz cuvette (Starna Cells) using a FluoroMax-3 (HORIBA) fluorimeter with 492 nm excitation wavelength and 520 nm emission wavelength at 30° C. for at least 2000 s.
The HTS was performed using the 8 channel BioRAPTR 1536 (Beckman) for reagent dispensing. […] Wells containing no RAD52 enzyme were used to as positive control, and data were analyzed using Genedata.
A fluorescence-quenching assay was used to screen for inhibitors of RAD52 ssDNA annealing activity (FIGS. 1A-1E). […] Annealing promoted by RAD52 between ssDNA and tdsDNA led to displacement of the FLU-carrying DNA strand from the tdsDNA and in an increase in fluorescence due to secession of fluorescence quenching by the BHQ1 group (FIG. 1B).
The fluorescence-quenching assay was optimized for 1,536 well plates (Z′ Avg=0,64). […] The hits were further analyzed for a concentration dependence in inhibiting of RAD52 and by testing their DNA binding affinity using the acridine orange assay.

Assay [2] addresses T1, RAD52. Briefly: D-loop formation (DNA pairing) by RAD52. It counts as biochemical. The settings on record: three independent repeats, read-out: Inhibition of DNA pairing (D-loop formation), IC50. How it is done: Cisplatin was purchased from Sigma-Aldrich. Human RAD52 and RAD51 were purified as described (Bugreev et al., 2005, Mol. Cell. Biol. 33, 387-395). The oligonucleotides (Table 2) were purchased from IDT, Inc and further purified by electrophoresis (Rossi et al., 2010, Methods 51, 336-346). Supercoiled pUC19 plasmid DNA was purified using Qiagen kits. All DNA concentrations are expressed as moles of nucleotide.
To form RAD52 nucleoprotein complexes, RAD52 (0.45 μM) was incubated with a ^32P-labeled ssDNA (oligo 90/SEQ ID NO: 4) (3 μM, nt) in buffer containing 25 mM Tris-Acetate, pH 7.5, 100 μg·ml-1 BSA, 0.3 mM magnesium acetate, and 2 mM DTT at 37° C. for 15 min. To form RAD51 nucleoprotein filament, RAD51 (1 μM) was incubated with ^32P-labeled ssDNA (3 μM, nt) in buffer containing 25 mM Tris-Acetate, pH 7.5, 100 μg·ml-1 BSA, 1 mM calcium chloride, 1 mM ATP and 2 mM DTT for 15 min at 37° C. Then inhibitors were added to both reactions and incubation continued for 15 min at 37° C. D-Loop formation was initiated by addition of supercoiled pUC19 DNA (50 μM, nucleotides) and was carried out 15 min at 37° C. The reactions were stopped and deproteinized by the addition of 1.5% SDS and proteinase K (0.8 mg/ml) for 15 min at 37° C., mixed with a 0.10 volume of loading buffer (70% glycerol, 0.1% bromphenol blue), and analyzed by electrophoresis in 1% agarose gels in TAE buffer (40 mM Tris acetate, pH 8.3, and 1 mM EDTA) at 5 V/cm for 3 h. The gels were dried on DEAE-81 paper (Whatman) and the yield of D-loops quantified using a Storm 840 PhosphorImager and ImageQuant 5.2 (GE Healthcare). The D-loop yield was expressed as a percentage of plasmid DNA carrying D-loops relative to the total plasmid DNA.
IC50 values were calculated using GraphPad Prism V5.0 software. The data were obtained from three independent repeats of experiments.
The inhibitory effect of the 70 selected compounds were tested using the D-loop assay, in which RAD52 promotes pairing between 32P-labeled ssDNA and homologous supercoiled plasmid pUC19 DNA (FIG. 1D); the product of the reaction, D-loops, were analyzed by electrophoresis in 1% agarose gels. […] Then, the effects of each of the 17 compounds on RAD52-dependent D-loop formation were measured in a concentration dependent manner.

In assay [3] the test system is Capan-1 (BRCA2-) and BxPC3 (BRCA2+) cells. Briefly: Luminescent cell viability assay, BRCA2-deficient versus proficient cells. The settings on record: 9 days exposure. It counts as cell-based, Human. The protocol:
(§1) BxPC3 cells were kept in RPMI 1640 (ATCC) media supplemented with 10% FBS (Gibco). Capan-1/BxPC3 Capan-1 cells were kept in IMDM (ATCC) media containing 20% FBS (GIBCO). […] cells were kept in 48.5% RPMI1640 (ATCC), 48.5% MEGM (Clonetics/Lonza, MEGM kit, CC-3150) and 3% FBS (GIBCO) respectively. Cells in log-phase were harvested and 100 μl cell suspensions were replated in a 96-well plate with a final density of 4000 cells/well. After overnight growth, cells were treated with indicated concentrations of compounds. Media containing the invariant concentration of compounds were refreshed every 3 days until cells were finally lysed by 30 μl/well of Promega CellTiter-Glo reagents and read on a Promega GloMax 96 reader on day 10 (9 days exposure).
(§2) BxPC3 cells were kept in RPMI 1640 (ATCC) media supplemented with 10% FBS (Gibco); Capan-1 cells were kept in IMDM (ATCC) media containing 20% FBS (GIBCO); UWB1.298 and UWB1.298 (BRCA1+) cells were kept in 48.5% RPMI1640 (ATCC), 48.5% MEGM (Clonetics/Lonza, MEGM kit, CC-3150) and 3% FBS (GIBCO) respectively. […] Media containing the invariant concentration of compounds were refreshed every 3 days until cells were finally lysed by 30 μl/well of Promega CellTiter-Glo reagents and read on a Promega GloMax 96 reader on day 10 (9 days exposure). […]

The test system of assay [4] is UWB1.289 (BRCA1-) and UWB1.289 (+BRCA1) cells. Put plainly: Luminescent cell viability assay, BRCA1-deficient versus proficient cells. Type of assay: cell-based, Human. Conditions: 9 days exposure. The protocol:
as §1, §2

The subject of assay [5] is MDA-MB-436 (BRCA1-) and MDA-MB-436 (BRCA1+) cells. Put plainly: Clonogenic survival assay. Type of assay: cell-based, Human. The protocol:
MDA-MB-436 cells were cultured in RPMI+10% FBS. BRCA-proficient and BRCA-deficient cells were plated on day 0 in triplicate at 5,000 cells/well. […] Cells were counted on day 4 on a hemocytometer, using Trypan Blue exclusion, and immediately were plated in a clonogenic assay at a density of 500 cells/well in a 6 well plate, in RPMI+10% FBS. After two weeks, the colonies were fixed/stained with 0.05% of 10 mg/ml ethidium bromide in 50% ethanol and visualized with Alphaimager gel imager (Alpha Innotech).
Likewise, the effects of RAD52 inhibitors on the growth of BRCA1-deficient (UWB1.289 BRCA1^−) and BRCA1-proficient (UWB1.289 BRCA^+) cells were tested. 7 out 14 tested RAD52 inhibitors preferentially suppress the growth of BRCA1-deficient cells. Importantly, these 7 compounds included the 5 compounds that inhibited the growth of BRCA2-deficient cells (FIGS. 3E-3H). The effects of the 14 RAD52 inhibitors were tested on the survival of another BRCA1-deficient cells, and MDA-MB-436 cells. […] BRCA1-deficiency in these cells is due to constitutive downregulation of this protein.

For assay [6], the system named is BRCA1/2-deficient cell lines. Briefly: Growth of BRCA1/2-deficient cell lines (summary over tested lines). It counts as cell-based, Human. How it is done: as §1
as §1, with “(Gibco);” for “(Gibco). Capan-1/BxPC3”, “(GIBCO);” for “(GIBCO).”, “exposure). Promega CellTiter-Glo protocol is available on the web: www dot promega dot com/resources/protocols/technical-bulletins/0/celltiter-glo-luminescent-cell-viability-assay-protocol/” for “exposure).”
MDA-MB-436 cells were cultured in RPMI+10% FBS. BRCA-proficient and BRCA-deficient cells were plated on day 0 in triplicate at 5,000 cells/well. […] Cells were counted on day 4 on a hemocytometer, using Trypan Blue exclusion, and immediately were plated in a clonogenic assay at a density of 500 cells/well in a 6 well plate, in RPMI+10% FBS. […]

Take `CCN(CC)CCCN(Cc1cc2cc3c(cc2[nH]c1=O)OCO3)C(=S)NCCCN(C)C` [D-A13, 1-(3-(diethylamino)propyl)-3-(3-(dimethylamino)propyl)-1-((6-oxo-5,6-dihydro-[1,3]dioxolo[4,5-g]quinolin-7-yl)methyl)thiourea]: the IC50 (as a rule, the concentration that gives 50% inhibition) against RAD52 [1] came to 5.2 µM; on RAD52 [2], 13.6 ± 0.64 µM.

In the case of `COc1ccc(-c2nc(C(=O)NCCCN3CCOCC3)cc3c2[nH]c2ccccc23)cc1OC` [D-A19, 1-(3,4-dimethoxyphenyl)-N-(3-morpholinopropyl)-9H-pyrido[3,4-b]indole-3-carboxamide], the IC50 against RAD52 [1] is 4.8 µM; at RAD52 [2] it was 7.2 ± 0.28 µM.

For the compound `Cc1c(C(=O)Nc2ccc(S(=O)(=O)N(C)C3CCN(C)CC3)cc2)oc2c(Cl)cccc12` [D-A21, 7-chloro-3-methyl-N-(4-(N-methyl-N-(1-methylpiperidin-4-yl)sulfamoyl)phenyl) benzofuran-2-carboxamide], the values for the IC50 on RAD52 [1] and at RAD52 [2] were 9.8 µM and 16.2 ± 0.42 µM, respectively.

As to `Cc1ccc(C(=O)c2oc3ccc(Cl)cc3c2NC(=O)CN2CCN(C)CC2)cc1` [D-C17, N-(5-chloro-2-(4-methylbenzoyl)benzofuran-3-yl)-2-(4-methylpiperazin-1-yl)acetamide], the results for the IC50 at RAD52 [1] and on RAD52 [2] were 6 µM and 17.6 ± 0.78 µM, respectively.

Consider `Cc1ccc(-c2nc(C(=O)NCCCN3CCOCC3)cc3c2[nH]c2ccccc23)cc1` [D-C19, N-(3-morpholinopropyl)-1-(p-tolyl)-9H-pyrid[3,4-b]indole-3-carboxamide], for which the IC50 on RAD52 [1] came out at 2 µM; on RAD52 [2] it was 4.3 ± 0.35 µM.

For `CCN1CCN(CCCNC(=S)Nc2ccc3nc(N(C)CCN)cc(C)c3c2)CC1` [D-E05, 1-(2-((2-aminoethyl)(methyl)amino)-4-methylquinolin-6-yl)-3-(3-(4-ethylpiperazin-1-yl)propyl)thiourea], the results for the IC50 against RAD52 [1] and on RAD52 [2] were 1.7 µM and 11.3 ± 0.35 µM, respectively.

For the compound `CCCCN(CC)CCCNC(=S)Nc1ccc2nc(N3CCN(C)CC3)cc(C)c2c1` [D-G09, 1-(3-(butyl(ethyl)amino)propyl)-3-(4-methyl-2-(4-methylpiperazin-1-yl)quinolin-6-yl)thiourea], the “effect on growth of BRCA2-deficient Capan-1 cells versus BxPC3” value in assay [3] is “showed an inhibitory effect”. Also, in assay [4], the “effect on growth of BRCA1-deficient UWB1.289 cells versus UWB1.289 (+BRCA1)” value is listed as “showed an inhibitory effect”. Also, the results for the half-inhibitory concentration (IC50) against RAD52 [1] and at RAD52 [2] were 2 µM and 14.8 ± 2.47 µM, respectively. For the same compound, the “effect on survival of BRCA1-deficient MDA-MB-436 cells versus MDA-MB-436 (BRCA1+)” value in assay [5] is “showed an inhibitory effect”.

Regarding `CCCN(CCC)CCCNC(=S)Nc1ccc2nc(N3CCN(C)CC3)cc(C)c2c1` [D-G11, 1-(3-(dipropylamino)propyl)-3-(4-methyl-2-(4-methylpiperazin-1-yl)quinolin-6-yl)thiourea], the “effect on growth of BRCA2-deficient Capan-1 cells versus BxPC3” value in assay [3] is “showed activity”. In assay [4], the “effect on growth of BRCA1-deficient UWB1.289 cells versus UWB1.289 (+BRCA1)” value is listed as “showed activity”. Besides, the results for the IC50 against RAD52 [1] and on RAD52 [2] were 6 µM and 8.9 ± 1.6 µM, respectively.

For `Cc1cc(N2CCN(C)CC2)nc2ccc(NC(=S)NCCCN3CCN(C)CC3)cc12` [D-I01, 1-(4-methyl-2-(4-methylpiperazin-1-yl)quinolin-6-yl)-3-(3-(4-methylpiperazin-1-yl)propyl)thiourea], the IC50 at RAD52 [1] stood at 3.6 µM; at RAD52 [2], 15.4 ± 0.57 µM.

With `COc1ccc(OC)c(Nc2nc(NCCO)c3ccccc3n2)c1` [D-I05, 2-((2-((2,5-dimethoxyphenyl)amino)quinazolin-4-yl)amino)ethan-1-ol], the half-inhibitory concentration (IC50) was 4.3 µM against RAD52 [1] and 8.8 ± 0.42 µM at RAD52 [2]. Further, in assay [6], the “preferential inhibition of BRCA1/2-deficient cell lines (summary)” value is recorded as “preferentially inhibited at least two BRCA1/2-deficient cell lines”.

As to `CN1CCN(CCCNC(=O)c2cc3c(-c4ccc(Cl)cc4)nn(C)c3s2)CC1` [D-I07, 3-(4-chlorophenyl)-1-methyl-N-(3-(4-methylpiperazin-1-yl)propyl)-1H-thieno[2,3-c]pyrazole-5-carboxamide], the figures for the IC50 on RAD52 [1] and at RAD52 [2] were 2 µM and 2.7 ± 0.35 µM, respectively.

For the compound `CCCCN(CC)CCNC(=O)c1cc2c(-c3ccc(Cl)cc3)nn(C)c2s1` [D-I09, N-(2-(butyl(ethyl)amino)ethyl)-3-(4-chlorophenyl)-1-methyl-1H-thieno[2,3-c]pyrazole-5-carboxamide], the IC50 on RAD52 [1] is 6.8 µM; at RAD52 [2], 10.6 ± 1.4 µM.

On to `Cn1nc(-c2ccc(Cl)cc2)c2cc(C(=O)NCCCN3CCCCCC3)sc21` [D-I11, N-(3-(azepan-1-yl)propyl)-3-(4-chlorophenyl)-1-methyl-1H-thieno[2,3-c]pyrazole-5-carboxamide], for which the IC50 on RAD52 [1] amounted to 4.1 µM; at RAD52 [2], 6.7 ± 0.78 µM.

`Cn1nc(-c2ccc(Cl)cc2)c2cc(C(=O)NCCCN3CCCC3)sc21` [D-I19, 3-(4-chlorophenyl)-1-methyl-N-(3-(pyrrolidin-1-yl)propyl)-1H-thieno[2,3-c]pyrazole-5-carboxamide]: the values for the IC50 at RAD52 [1] and on RAD52 [2] were 3.5 µM and 4.1 ± 0.14 µM, respectively.

In the case of `COc1ccccc1Nc1nc(NCCCO)c2ccccc2n1` [D-K17, 3-((2-((2-methoxyphenyl)amino)quina-zolin-4-yl)amino)propan-1-ol], the IC50 worked out at 2.9 µM against RAD52 [1] and 4.8 ± 0.85 µM on RAD52 [2]. In assay [6], the “preferential inhibition of BRCA1/2-deficient cell lines (summary)” value is on record as “preferentially inhibited at least two BRCA1/2-deficient cell lines”.

These data come from patent publication US10738061B2, “Inhibitors of RAD52 recombination protein and methods using same” (Drexel University, priority 2015, dated 2020).
